Data: patent US20220056043A1, “NITROGEN-CONTAINING FUSED CYCLIC COMPOUND, PREPARATION METHOD THEREFOR AND USE THEREOF” (SICHUAN KELUN-BIOTECH BIOPHARMACEUTICAL CO., LTD., priority 2019, published 2022)

How the values were obtained:
[1] = biological target: T1, hNLRP3 inflammasome (Homo sapiens, UniProt Q96P20); assay: Agonistic effect on the expression of IL-1β in THP-1 cells after PMA-induced differentiation (HTRF); format: cell-based; settings: IL-1β level, PMA-differentiated THP-1 cells, 6 hours
T1 construct: endogenous in cells; host or cells: THP-1 cells, PMA-differentiated
T1 sequence (Q96P20 whole entry): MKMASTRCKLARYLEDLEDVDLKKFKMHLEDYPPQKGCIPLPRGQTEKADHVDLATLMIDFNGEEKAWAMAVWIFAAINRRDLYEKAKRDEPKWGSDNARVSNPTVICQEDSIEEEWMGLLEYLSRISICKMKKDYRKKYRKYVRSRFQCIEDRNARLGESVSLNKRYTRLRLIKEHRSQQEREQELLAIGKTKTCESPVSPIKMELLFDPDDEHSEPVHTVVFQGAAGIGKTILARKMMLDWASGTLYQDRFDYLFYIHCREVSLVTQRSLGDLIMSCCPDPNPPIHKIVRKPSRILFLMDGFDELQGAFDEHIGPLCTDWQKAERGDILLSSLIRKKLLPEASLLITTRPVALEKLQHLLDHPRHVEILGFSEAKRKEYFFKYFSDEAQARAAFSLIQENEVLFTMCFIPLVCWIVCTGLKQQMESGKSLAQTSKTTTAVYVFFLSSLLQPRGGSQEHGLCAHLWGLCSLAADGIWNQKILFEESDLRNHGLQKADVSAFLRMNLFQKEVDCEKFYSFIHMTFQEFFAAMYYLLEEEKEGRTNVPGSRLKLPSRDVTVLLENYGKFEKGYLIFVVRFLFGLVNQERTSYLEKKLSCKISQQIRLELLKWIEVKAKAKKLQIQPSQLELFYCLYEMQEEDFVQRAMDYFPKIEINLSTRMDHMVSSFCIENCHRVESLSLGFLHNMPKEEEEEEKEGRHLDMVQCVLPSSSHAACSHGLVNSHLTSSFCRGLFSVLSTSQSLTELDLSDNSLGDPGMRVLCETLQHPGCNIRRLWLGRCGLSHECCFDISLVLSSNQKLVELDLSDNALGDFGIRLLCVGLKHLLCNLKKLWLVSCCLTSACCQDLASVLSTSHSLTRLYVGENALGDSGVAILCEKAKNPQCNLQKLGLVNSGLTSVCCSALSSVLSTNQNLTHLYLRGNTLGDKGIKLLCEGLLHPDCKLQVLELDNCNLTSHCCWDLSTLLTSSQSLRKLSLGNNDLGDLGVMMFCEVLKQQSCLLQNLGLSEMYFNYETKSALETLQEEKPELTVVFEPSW
Text: Experimental Example 1: Agonistic Effect of the Compound of the Invention on the Expression of IL-1β in THP-1 Cells after PMA-Induced Differentiation
In this test, a HTRF (homogeneous time-resolved fluorescence) detection method was used to test the effect of the compound of the invention on the level of downstream cytokine IL-1β of NLRP3 to evaluate the agonistic effect of the compound on hNLRP3 inflammasome or hNLRP3 inflammasome pathway at a cellular level.
Reagent: RPMI 1640 (Hyclone); heat-inactivated FBS (fetal bovine serum) (Gibco); PMA (phorbol myristal acetate) (Beyotime)
Kit: IL-1β assay kit (CISIO)
1) THP-1 cells in a logarithmic growth phase were seeded in a T75 culture flask at a density of 5×10^5 cells/well, and cultured in a cell incubator at 37° C., 5% CO2 for 24 hours, and then 1 μM PMA was used to induce THP-1 suspension cells to become adherent macrophages. The medium was RPMI 1640 containing 10% heat-inactivated FBS and 0.05 mM β-mercaptoethanol.
2) The cells were induced and cultured for 24 hours. Then the adherent cells were trypsinized and centrifuged at 1000 rpm for 5 min. The supernatant was removed, and the cells were resuspended to a density of 2×10^6 cells/mL in RPMI 1640 medium containing 2% heat-inactivated FBS. 50 μL/well of cell resuspension was taken and spread on a 96-well plate such that the number of cells in each well was 1×10^5.
3) An appropriate amount of 10 mM DMSO solution of the compound to be tested was taken and diluted to a concentration of 2× test concentration with RPMI 1640 medium containing 2% heat-inactivated FBS. 50 μL/well of the dilution was added to the cells in the 96-well plate, and mixed well. The plate was placed in a cell incubator at 37° C., 5% CO2 for 6 hours. The supernatant was collected, and the level of IL-1β was measured in accordance with the instructions of the IL-1β detection kit.
4) EC50 was fitted by the GraphPad software log(agonist) vs. response—Variable slope four-parameter method.

[2] = biological target: T2, hTLR8 (Homo sapiens, UniProt Q9NR97); assay: Agonistic effect on hTLR8, HEK-Blue hTLR8 cells, alkaline phosphatase secretion; format: cell-based; settings: 16 hours
T2 construct: host or cells: HEK-Blue hTLR8 cells
T2 sequence (Q9NR97 27-1041): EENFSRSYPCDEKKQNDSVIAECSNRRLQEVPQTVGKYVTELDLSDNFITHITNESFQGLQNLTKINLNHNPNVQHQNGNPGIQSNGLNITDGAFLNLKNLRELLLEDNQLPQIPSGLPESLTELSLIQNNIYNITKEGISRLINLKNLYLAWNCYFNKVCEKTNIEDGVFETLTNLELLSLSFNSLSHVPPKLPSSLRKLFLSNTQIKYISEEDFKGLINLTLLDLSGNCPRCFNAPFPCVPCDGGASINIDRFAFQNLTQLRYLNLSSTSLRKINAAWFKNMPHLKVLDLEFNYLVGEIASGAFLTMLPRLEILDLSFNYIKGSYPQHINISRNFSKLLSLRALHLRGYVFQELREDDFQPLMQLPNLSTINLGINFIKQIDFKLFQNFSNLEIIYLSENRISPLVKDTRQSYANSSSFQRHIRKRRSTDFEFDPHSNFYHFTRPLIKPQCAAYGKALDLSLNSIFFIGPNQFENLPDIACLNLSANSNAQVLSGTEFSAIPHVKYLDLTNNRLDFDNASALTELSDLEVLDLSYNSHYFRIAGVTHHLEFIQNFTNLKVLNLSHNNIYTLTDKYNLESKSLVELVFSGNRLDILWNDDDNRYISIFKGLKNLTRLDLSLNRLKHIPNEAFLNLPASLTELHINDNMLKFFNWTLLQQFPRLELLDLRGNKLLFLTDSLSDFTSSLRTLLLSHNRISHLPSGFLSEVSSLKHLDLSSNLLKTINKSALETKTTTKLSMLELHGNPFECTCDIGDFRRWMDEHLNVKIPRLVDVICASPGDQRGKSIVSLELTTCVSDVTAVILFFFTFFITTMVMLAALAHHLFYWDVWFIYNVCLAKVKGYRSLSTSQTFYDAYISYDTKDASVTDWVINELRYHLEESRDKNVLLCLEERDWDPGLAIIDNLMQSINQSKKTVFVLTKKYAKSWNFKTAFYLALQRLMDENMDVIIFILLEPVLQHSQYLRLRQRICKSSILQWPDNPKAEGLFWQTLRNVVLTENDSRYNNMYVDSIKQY
Description: Experimental Example 4: Agonistic Effect of the Compound of the Invention on hTLR8
In this test, the secretion of alkaline phosphatase in HEK-Blue cells was measured to test the activating effect of the compound of the invention on TLR8 signaling pathway, so as to evaluate the specificity of the agonistic effect of the compound on NLRP3 pathway.
Reagents: DMEM (High glucose); FBS (fetal bovine serum) (Gibco); QUANTI-Blue/InvivoGen/rep-qb2
Cells: HEK-Blue™ hTLR8 cells (human TLR 8 cells) (InvivoGen) Experimental Procedures:
1) The HEK-Blue™ hTLR8 cells in a logarithmic growth phase were trypsinized and resuspended in the medium to a concentration of 2×10^6 cells/mL. 50 μL/well of the cell suspension was added to a 96-well plate. An appropriate amount of 10 mM DMSO solution of the compound to be tested was taken and diluted to a concentration of 2× test concentration with the medium. 50 μL/well was added to the cells in the 96-well plate. The plate was incubated in an incubator at 37° C. and 5% CO2 for 16 hours. The medium was DMEM (High glucose) containing 10% FBS. 2) After the cell incubation, 10 μL of cell culture supernatant was transferred to a 96-well plate. 90 μL/well of QUANTI-Blue detection solution was added, and the mixture was incubated at 37° C. for 3 hours. OD620 was read using a microplate reader.
3) The EC50 of the effect of the tested compound to stimulate hTLR8 was fitted by the GraphPad software log(agonist) vs. response—Variable slope four-parameter method.

SMILES | EC50 [1] [µM] | EC50 [2] [nM]
Cn1ccc(CNc2cc(N)nc3cc(-c4ccn[nH]4)sc23)n1 [Compound 60, N^7-(1-methyl-1H-pyrazol-3-yl)methyl-2-(1H-pyrazol-5-yl)thieno[3,2-b]pyridine-5,7-diamine] | 0.1 | > 100000
CN1CCC[C@@H](Nc2cc(N)nc3cc(-c4ccn[nH]4)sc23)C1 [Compound 104, (R)—N^7-(1-methylpiperidin-3-yl)-2-(1H-pyrazol-5-yl)thieno[3,2-b]pyridine-5,7-diamine] | 0.17 | > 100000
C[C@@H]1COCCN1c1cc(N)nc2cc(-c3ccn[nH]3)sc12 [Compound 177] | 0.03 | > 100000
CCC(CC)Nc1cc(N)nc2cc(-c3ccn[nH]3)sc12 [Compound 113, N^7-(pent-3-yl)-2-(1H-pyrazol-5-yl)thieno[3,2-b]pyridine-5,7-diamine] | 0.03 | > 100000
Nc1cc(N2CC[C@@H](O)C2)c2sc(-c3ccn[nH]3)cc2n1 [Compound 181] | 0.009 | > 100000
Nc1cc(NCCCO)c2sc(-c3ccccc3)cc2n1 [Compound 93, 3-((5-amino-2-phenylthieno[3,2-b]pyridin-7-yl)amino)-1-propanol] | 0.18 | > 100000
CC(C)N1CCN(c2cc(N)nc3cc(-c4ccn[nH]4)sc23)CC1 [Compound 162] | 0.01 | > 100000
CC[C@H](CO)Nc1cc(N)nc2cc(-c3ccn[nH]3)sc12 [Compound 95, (R)-2-((5-amino-2-(1H-pyrazol-5-yl)thieno[3,2-b]pyridin-7-yl)amino)butanol] | 0.09 | > 100000
Nc1cc(NCc2ccccn2)c2sc(-c3ccn[nH]3)cc2n1 [Compound 59, 2-(1H-pyrazol-5-yl)-N^7-(pyridin-2-ylmethyl)thieno[3,2-b]pyridine-5,7-diamine] | 0.1 | > 100000
Nc1cc(NCCCO)c2sc(-c3ccncc3)cc2n1 [Compound 90, 3-((5-amino-2-(pyridin-4-yl)thieno[3,2-b]pyridin-7-yl)amino)-1-propanol] | 6.03 | > 100000
Nc1cc(N2CC3CC(C2)N3)c2sc(-c3ccn[nH]3)cc2n1 [Compound 176] | 0.23 | > 100000
Cc1c(-c2cc[nH]n2)sc2c(NCCN3CCOCC3)cc(N)nc12 [Compound 153] | 4.29 | > 100000
C[C@H]1CN(c2cc(N)nc3cc(-c4ccn[nH]4)sc23)C[C@H](C)O1 [Compound 168] | 0.01 | > 100000
CN1CC[C@H](Nc2cc(N)nc3cc(-c4ccn[nH]4)sc23)C1 [Compound 51, (S)—N^7-(1-methylpyrrolidin-3-yl)-2-(1H-pyrazol-5-yl)thieno[3,2-b]pyridine-5,7-diamine] | 0.33 | > 100000
CS(=O)(=O)N1CCN(c2cc(N)nc3cc(-c4ccn[nH]4)sc23)CC1 [Compound 164] | 0.006 | > 100000
Cn1cnc(CNc2cc(N)nc3cc(-c4ccn[nH]4)sc23)c1 [Compound 63, N^7-(1-methyl-1H-imidazol-4-yl)methyl-2-(1H-pyrazol-5-yl)thieno[3,2-b]pyridine-5,7-diamine] | 0.07 | > 100000
CN1CCN(c2cc(N)nc3cc(-c4ccn[nH]4)sc23)CC1 [Compound 161] | 0.18 | > 100000
Nc1cc(N2CCN(C3CCCC3)CC2)c2sc(-c3ccn[nH]3)cc2n1 [Compound 160] | 0.11 | > 100000

Now from value to compound:

EC50 [1] [µM] | EC50 [2] [nM] | SMILES
0.03 | > 100000 | Nc1cc(NCC(F)F)c2sc(-c3ccn[nH]3)cc2n1 [Compound 116, N^7-(2,2-difluoroethyl)-2-(1H-pyrazol-5-yl)thieno[3,2-b]pyridine-5,7-diamine]
0.6 | > 100000 | CC(CO)(CO)CNc1cc(N)nc2cc(-c3ccn[nH]3)sc12 [Compound 122]
0.03 | > 100000 | COCCNc1cc(N)nc2cc(-c3ccn[nH]3)sc12 [Compound 100, N^7-(2-methoxyethyl)-2-(1H-pyrazol-5-yl)thieno[3,2-b]pyridine-5,7-diamine]
0.01 | > 100000 | Nc1cc(NCC2CC2)c2sc(-c3ccn[nH]3)cc2n1 [Compound 102, N^7-(cyclopropylmethyl)-2-(1H-pyrazol-5-yl)thieno[3,2-b]pyridine-5,7-diamine]
0.26 | > 100000 | Nc1cc(NCCCNC(=O)C2CC2)c2sc(-c3ccn[nH]3)cc2n1 [Compound 58]
0.54 | > 100000 | CC1(O)CCN(CCCNc2cc(N)nc3cc(-c4ccn[nH]4)sc23)CC1 [Compound 99, 1-(3-((5-amino-2-(1H-pyrazol-5-yl)thieno[3,2-b]pyridin-7-yl)amino)propyl)-4-methylpiperidine-4-ol]
0.1 | > 100000 | Nc1cc(NC2CCOC2)c2sc(-c3ccn[nH]3)cc2n1 (centres unmarked) [Compound 61, 2-(1H-pyrazol-5-yl)-N^7-(tetrahydrofuran-3-yl)thieno[3,2-b]pyridine-5,7-diamine]
0.27 | > 100000 | C[C@@H]1CN(CCNc2cc(N)nc3cc(-c4ccn[nH]4)sc23)C[C@H](C)O1 [Compound 117, N^7-(2-((2S,6R)-2,6-dimethylmorpholino)ethyl)-2-(1H-pyrazol-5-yl)thieno[3,2-b]pyridine-5,7-diamine]
0.27 | > 100000 | CN(CCCNc1cc(N)nc2cc(-c3ccn[nH]3)sc12)C(=O)C1CC1 [Compound 76, N-(3-((5-amino-2-(1H-pyrazol-5-yl)thieno[3,2-b]pyridin-7-yl)amino)propyl)-N-methylcyclopropane formamide]
0.39 | > 100000 | Nc1cc(NC2CC(O)C2)c2sc(-c3ccn[nH]3)cc2n1 (centres unmarked) [Compound 40, 3-((5-amino-2-(1H-pyrazol-5-yl)thieno[3,2-b]pyridin-7-yl)amino)cyclobutanol]
